Tested on: not listed separately
Experiment: Cytotoxicity against mouse LMTK cells assessed as reduction in cell viability after 72 hrs by MTT assay
Type: toxicity
Conditions: not given
For Cc1c(C)c2c(c(C)c1OC(=O)CCC(=O)O)CCC(C)(C(=O)NCC1CC(C)(C)N([O])C1(C)C)O2 (stereo not given), the IC50 at 72 h was over 300 µM. Cc1c(C)c2c(c(C)c1O)CCC(C)(C(=O)O)O2 (stereo not given) [TROLOX] showed an IC50 at 72 h of over 300 µM.

Tested on: not listed separately
Experiment: Cytotoxicity against human MT4 cells assessed as reduction in cell viability after 72 hrs by MTT assay
Type: functional, cell-based
Conditions: MT4, 72 h
Cc1c(C)c2c(c(C)c1OC(=O)CCC(=O)O)CCC(C)(C(=O)NCC1CC(C)(C)N([O])C1(C)C)O2 (stereo not given) showed an IC50 of over 300 µM. For Cc1c(C)c2c(c(C)c1O)CCC(C)(C(=O)O)O2 (stereo not given) [TROLOX], the IC50 was 200 µM.

Tested on: not listed separately
Experiment: Ratio of IC50 for human CEM13 cells to concentration causing antioxidant activity in Salmonella typhimurium TA102 harboring […] mutant
Type: functional
Conditions: not given
For Cc1c(C)c2c(c(C)c1OC(=O)CCC(=O)O)CCC(C)(C(=O)NCC1CC(C)(C)N([O])C1(C)C)O2 (stereo not given), the Ratio was 100 - 1000.

Tested on: not listed separately
Experiment: Cytotoxicity against human CEM13 cells assessed as reduction in cell viability at 300 uM after 72 hrs by MTT assay
Type: functional
Conditions: CEM13, 72 h
For Cc1c(C)c2c(c(C)c1OC(=O)CCC(=O)O)CCC(C)(C(=O)NCC1CC(C)(C)N([O])C1(C)C)O2 (stereo not given), the inhibition at 300 µM was 31%. For Cc1c(C)c2c(c(C)c1O)CCC(C)(C(=O)O)O2 (stereo not given) [TROLOX], the inhibition at 300 µM was 37%.

Tested on: not listed separately
Experiment: Ratio of IC50 for human RPMI8226 cells to concentration causing antioxidant activity in Salmonella typhimurium TA102 harboring […] mutant
Type: functional, RPMI-8226
Conditions: not given
For Cc1c(C)c2c(c(C)c1OC(=O)CCC(=O)O)CCC(C)(C(=O)NCC1CC(C)(C)N([O])C1(C)C)O2 (stereo not given), the Ratio was 100 - 1000.

Tested on: not listed separately
Experiment: Cytotoxicity against human MCF7 cells assessed as reduction in cell viability at 300 uM after 72 hrs by MTT assay
Type: functional
Conditions: MCF7, 72 h
In the case of Cc1c(C)c2c(c(C)c1OC(=O)CCC(=O)O)CCC(C)(C(=O)NCC1CC(C)(C)N([O])C1(C)C)O2 (stereo not given), the inhibition at 300 µM is reported as 24%. Cc1c(C)c2c(c(C)c1O)CCC(C)(C(=O)O)O2 (stereo not given) [TROLOX] gave an inhibition at 300 µM of 5%.

Tested on: not listed separately
Experiment: Cytotoxicity against human RPMI8226 cells assessed as reduction in cell viability after 72 hrs by MTT assay
Type: functional, cell-based
Conditions: RPMI-8226, 72 h
Work on Cc1c(C)c2c(c(C)c1OC(=O)CCC(=O)O)CCC(C)(C(=O)NCC1CC(C)(C)N([O])C1(C)C)O2 (stereo not given) yielded an IC50 of over 300 µM. Cc1c(C)c2c(c(C)c1O)CCC(C)(C(=O)O)O2 (stereo not given) [TROLOX] showed an IC50 of over 300 µM.

Tested on: Salmonella typhimurium
Experiment: Genotoxicity in Salmonella typhimurium TA102 harboring […] mutant assessed as frequency of reversion from histidine auxotrophy to prototrophy at 30 mM after 48 hrs by Ames test (reference value: 209 +/- 10 No _unit)
Type: toxicity, organism-based
Conditions: salmonella enterica subsp. enterica serovar typhimurium, 30000 µM
With Cc1c(C)c2c(c(C)c1OC(=O)CCC(=O)O)CCC(C)(C(=O)NCC1CC(C)(C)N([O])C1(C)C)O2 (stereo not given) the Activity was 205. For Cc1c(C)c2c(c(C)c1O)CCC(C)(C(=O)O)O2 (stereo not given) [TROLOX], the Activity was 230.

Tested on: not listed separately
Experiment: Ratio of IC50 for human HEPG2 cells to concentration causing antioxidant activity in Salmonella typhimurium TA102 harboring […] mutant
Type: functional
Conditions: not given
In the case of Cc1c(C)c2c(c(C)c1OC(=O)CCC(=O)O)CCC(C)(C(=O)NCC1CC(C)(C)N([O])C1(C)C)O2 (stereo not given), the Ratio is reported as 100 - 1000.

Tested on: not listed separately
Experiment: Cytotoxicity against hamster AG17-1 cells assessed as reduction in cell viability at 300 uM after 72 hrs by MTT assay
Type: toxicity, cell-based, Cricetulus griseus
Conditions: Chinese hamster, read-out: INH
Molecule Cc1c(C)c2c(c(C)c1OC(=O)CCC(=O)O)CCC(C)(C(=O)NCC1CC(C)(C)N([O])C1(C)C)O2 (stereo not given) has a cytotoxicity at 72 h, 300 µM of 30%. With Cc1c(C)c2c(c(C)c1O)CCC(C)(C(=O)O)O2 (stereo not given) [TROLOX] the cytotoxicity at 72 h, 300 µM was 0%.

Tested on: not listed separately
Experiment: Cytotoxicity against human HepG2 cells assessed as reduction in cell viability after 72 hrs by MTT assay
Type: functional, cell-based
Conditions: HepG2, 72 h
With Cc1c(C)c2c(c(C)c1OC(=O)CCC(=O)O)CCC(C)(C(=O)NCC1CC(C)(C)N([O])C1(C)C)O2 (stereo not given) the IC50 was over 300 µM. Cc1c(C)c2c(c(C)c1O)CCC(C)(C(=O)O)O2 (stereo not given) [TROLOX] showed an IC50 of over 300 µM.

Tested on: not listed separately
Experiment: Ratio of IC50 for human MT4 cells to concentration causing antioxidant activity in Salmonella typhimurium TA102 harboring […] mutant
Type: functional
Conditions: not given
For Cc1c(C)c2c(c(C)c1OC(=O)CCC(=O)O)CCC(C)(C(=O)NCC1CC(C)(C)N([O])C1(C)C)O2 (stereo not given), the Ratio was 100 - 1000.

Tested on: not listed separately
Experiment: Ratio of IC50 for human U937 cells to concentration causing antioxidant activity in Salmonella typhimurium TA102 harboring […] mutant
Type: functional, U-937
Conditions: not given
For Cc1c(C)c2c(c(C)c1OC(=O)CCC(=O)O)CCC(C)(C(=O)NCC1CC(C)(C)N([O])C1(C)C)O2 (stereo not given), the Ratio was 100 - 1000.

Tested on: not listed separately
Experiment: Cytotoxicity against human HepG2 cells assessed as reduction in cell viability at 300 uM after 72 hrs by MTT assay
Type: functional
Conditions: HepG2, 72 h
Molecule Cc1c(C)c2c(c(C)c1OC(=O)CCC(=O)O)CCC(C)(C(=O)NCC1CC(C)(C)N([O])C1(C)C)O2 (stereo not given) has an inhibition at 300 µM of 18%. With Cc1c(C)c2c(c(C)c1O)CCC(C)(C(=O)O)O2 (stereo not given) [TROLOX] the inhibition at 300 µM was 14%.

Tested on: not listed separately
Experiment: Cytotoxicity against human MCF7 cells assessed as reduction in cell viability after 72 hrs by MTT assay
Type: functional, cell-based
Conditions: MCF7, 72 h
Molecule Cc1c(C)c2c(c(C)c1OC(=O)CCC(=O)O)CCC(C)(C(=O)NCC1CC(C)(C)N([O])C1(C)C)O2 (stereo not given) has an IC50 of over 300 µM. Cc1c(C)c2c(c(C)c1O)CCC(C)(C(=O)O)O2 (stereo not given) [TROLOX] showed an IC50 of over 300 µM.

Tested on: not listed separately
Experiment: Ratio of IC50 for human MCF7 cells to concentration causing antioxidant activity in Salmonella typhimurium TA102 harboring […] mutant
Type: functional
Conditions: not given
For Cc1c(C)c2c(c(C)c1OC(=O)CCC(=O)O)CCC(C)(C(=O)NCC1CC(C)(C)N([O])C1(C)C)O2 (stereo not given), the Ratio was 100 - 1000.

Tested on: not listed separately
Experiment: Cytotoxicity against human RPMI8226 cells assessed as reduction in cell viability at 300 uM after 72 hrs by MTT assay
Type: functional
Conditions: RPMI-8226, 72 h
For Cc1c(C)c2c(c(C)c1OC(=O)CCC(=O)O)CCC(C)(C(=O)NCC1CC(C)(C)N([O])C1(C)C)O2 (stereo not given), the inhibition at 300 µM was 22%. Cc1c(C)c2c(c(C)c1O)CCC(C)(C(=O)O)O2 (stereo not given) [TROLOX] showed an inhibition at 300 µM of 0%.

Tested on: not listed separately
Experiment: Genotoxicity in Escherichia coli PQ37 expressing lacZ gene assessed as ratio of inducible beta-galactosidase activity to alkaline phosphatase activity at 30 mM after 2 hrs by SOS-chromotest relative to control
Type: toxicity
Conditions: Escherichia coli PQ37 cells expressing lacZ gene, read-out: FC
Molecule Cc1c(C)c2c(c(C)c1OC(=O)CCC(=O)O)CCC(C)(C(=O)NCC1CC(C)(C)N([O])C1(C)C)O2 (stereo not given) has a fold induction at 2 h, 30000 µM of 1.3.

Tested on: not listed separately
Experiment: Genotoxicity in Escherichia coli PQ37 expressing lacZ gene assessed as ratio of inducible beta-galactosidase activity to alkaline phosphatase activity at 3 mM after 2 hrs by SOS-chromotest relative to control
Type: toxicity
Conditions: Escherichia coli PQ37 cells expressing lacZ gene, read-out: FC
In the case of Cc1c(C)c2c(c(C)c1O)CCC(C)(C(=O)O)O2 (stereo not given) [TROLOX], the fold induction at 2 h, 3000 µM is reported as 1.

Tested on: not listed separately
Experiment: Cytotoxicity against human U937 cells assessed as reduction in cell viability after 72 hrs by MTT assay
Type: functional, cell-based
Conditions: U-937, 72 h
In the case of Cc1c(C)c2c(c(C)c1OC(=O)CCC(=O)O)CCC(C)(C(=O)NCC1CC(C)(C)N([O])C1(C)C)O2 (stereo not given), the IC50 is reported as 24 µM. Work on Cc1c(C)c2c(c(C)c1O)CCC(C)(C(=O)O)O2 (stereo not given) [TROLOX] yielded an IC50 of 300 µM.

Tested on: Salmonella enterica subsp. enterica serovar Typhimurium
Experiment: Antioxidant activity in Salmonella typhimurium TA102 harboring […] mutant assessed as inhibition of t-BuO2H-dependant mutant formation at 30 uM preincubated with compound followed by t-BuO2H addition after 48 hrs by Ames test
Type: functional
Conditions: not given
Work on Cc1c(C)c2c(c(C)c1OC(=O)CCC(=O)O)CCC(C)(C(=O)NCC1CC(C)(C)N([O])C1(C)C)O2 (stereo not given) yielded an inhibition of 18%. Work on Cc1c(C)c2c(c(C)c1O)CCC(C)(C(=O)O)O2 (stereo not given) [TROLOX] yielded an inhibition of 4.7%.

Tested on: Salmonella enterica subsp. enterica serovar Typhimurium
Experiment: Antioxidant activity in Salmonella typhimurium TA102 harboring […] mutant assessed as inhibition of t-BuO2H-dependant mutant formation at 3 uM preincubated with compound followed by t-BuO2H addition after 48 hrs by Ames test
Type: functional
Conditions: not given
In the case of Cc1c(C)c2c(c(C)c1OC(=O)CCC(=O)O)CCC(C)(C(=O)NCC1CC(C)(C)N([O])C1(C)C)O2 (stereo not given), the inhibition is reported as 22%. With Cc1c(C)c2c(c(C)c1O)CCC(C)(C(=O)O)O2 (stereo not given) [TROLOX] the inhibition was 14.5%.

Tested on: Salmonella enterica subsp. enterica serovar Typhimurium
Experiment: Antioxidant activity in Salmonella typhimurium TA102 harboring […] mutant assessed as inhibition of t-BuO2H-dependant mutant formation at 0.3 uM preincubated with compound followed by t-BuO2H addition after 48 hrs by Ames test
Type: functional
Conditions: not given
Work on Cc1c(C)c2c(c(C)c1OC(=O)CCC(=O)O)CCC(C)(C(=O)NCC1CC(C)(C)N([O])C1(C)C)O2 (stereo not given) yielded an inhibition of 31%. Work on Cc1c(C)c2c(c(C)c1O)CCC(C)(C(=O)O)O2 (stereo not given) [TROLOX] yielded an inhibition of 8.8%.

Tested on: not listed separately
Experiment: Cytotoxicity against mouse LMTK cells assessed as reduction in cell viability at 300 uM after 72 hrs by MTT assay
Type: toxicity
Conditions: read-out: INH
Work on Cc1c(C)c2c(c(C)c1OC(=O)CCC(=O)O)CCC(C)(C(=O)NCC1CC(C)(C)N([O])C1(C)C)O2 (stereo not given) yielded a cytotoxicity at 72 h, 300 µM of 0%. With Cc1c(C)c2c(c(C)c1O)CCC(C)(C(=O)O)O2 (stereo not given) [TROLOX] the cytotoxicity at 72 h, 300 µM was 0%.

Tested on: not listed separately
Experiment: Cytotoxicity against hamster AG17-1 cells assessed as reduction in cell viability after 72 hrs by MTT assay
Type: toxicity, cell-based, Cricetulus griseus
Conditions: Chinese hamster
Molecule Cc1c(C)c2c(c(C)c1OC(=O)CCC(=O)O)CCC(C)(C(=O)NCC1CC(C)(C)N([O])C1(C)C)O2 (stereo not given) has an IC50 at 72 h of over 300 µM. For Cc1c(C)c2c(c(C)c1O)CCC(C)(C(=O)O)O2 (stereo not given) [TROLOX], the IC50 at 72 h was over 300 µM.

Tested on: not listed separately
Experiment: Cytotoxicity against human MT4 cells assessed as reduction in cell viability at 300 uM after 72 hrs by MTT assay
Type: functional
Conditions: MT4, 72 h
For Cc1c(C)c2c(c(C)c1OC(=O)CCC(=O)O)CCC(C)(C(=O)NCC1CC(C)(C)N([O])C1(C)C)O2 (stereo not given), the inhibition at 300 µM was 46%.

Tested on: not listed separately
Experiment: Cytotoxicity against human CEM13 cells assessed as reduction in cell viability after 72 hrs by MTT assay
Type: functional, cell-based
Conditions: CEM13, 72 h
Work on Cc1c(C)c2c(c(C)c1OC(=O)CCC(=O)O)CCC(C)(C(=O)NCC1CC(C)(C)N([O])C1(C)C)O2 (stereo not given) yielded an IC50 of over 300 µM. Work on Cc1c(C)c2c(c(C)c1O)CCC(C)(C(=O)O)O2 (stereo not given) [TROLOX] yielded an IC50 of over 300 µM.
